Where two headings read alike, the source gives them in different places.
Columns and labels:
[1] = system: Tau441 interaction with MTs in axon-like processes of neuronally differentiated PC12 cells; assay: Fluorescence decay after photoactivation (FDAP) of PAGFP-Tau441; type: cell-based, human
From the text: Building on the role of Tau dynamics in axonal MT function, , we next used Tau as a structural sensitive neuronal MAP to assess whether drug-imposed MT lattice states alter MAP recognition. To this end, we initially performed fluorescence decay after photoactivation (FDAP) experiments to assess potential changes in the interaction of the longest human Central Nervous System Tau isoform (Tau441) with MTs in axon-like processes of model neurons. We tagged Tau at the N-terminus with photoactivatable GFP (PAGFP) and expressed it exogenously in PC12 cells differentiated into a neuronal phenotype (Figure A). After locally activating a subset of labeled Tau molecules in the middle of a process, we monitored FDAP over time in the activated region (Figure B). Tau gradually dissipated from the activation site.
To quantify changes in Tau’s effective diffusion constant (D eff) as a result of its dynamic interactions with MTs, we measured FDAP at various compound concentrations and fitted the resulting decay curves using a previously established reaction-diffusion model. […] Remarkably, the GDP-like MTs stabilized by compound 1b remain largely neutral with respect to Tau-MT interactions.
PC12 cells (originally obtained from J.A. Wagner, Harvard Medical School) were cultured in serum-DMEM (DMEM supplemented with 10% fetal bovine serum and antibiotics (100 U/ml penicillin and 100 μg/mL streptomycin)) at 37 °C with 10% CO2 in a humidified incubator. For live cell imaging, cells were transfected with the respective pRc/CMV expression vector using Lipofectamine 2000 (Thermo-Fisher Scientific, USA) as previously described. FDAP experiments were performed essentially as previously described. Briefly, cells expressing PAGFP-tagged Tau441 were plated on 35 mm glass-bottom culture dishes (MatTek, USA), transfected, and neuronally differentiated by medium exchange to serum-reduced DMEM containing 100 ng/mL 7S mouse NGF. After 3 days, the medium was exchanged to serum-reduced DMEM without phenol red with NGF, and the respective compound (or DMSO for carrier control) were added at the desired concentration. After 20 h, live cell imaging was performed using a laser scanning microscope (Nikon Eclipse Ti2-) equipped with a LU-N4 laser unit with 488 and 405 nm lasers and a Fluor 60× ultraviolet-corrected objective lens (NA 1.4) and a C2+scanner enclosed in an incubation chamber at 37 °C and 5% CO2. Photoactivation was performed with a 405 nm laser using the microscope software (NIS-Elements version AR 5.02.03). The following steps were performed in a photoactivation experiment. A transfected cell with a suitable process (minimum length 30 μm) was selected in the field of view (50 μm × 50 μm) and a preactivation image was saved at 488 nm excitation. The scan window was reduced to a 6-μm diameter activation spot (corresponding to 130 pixels), and photoactivation was performed in the center of the neurite using the 405 nm blue diode (laser intensity 1.0%; corresponding to an output of 30 μW) with two scans at a pixel dwell time of 4.08 μs (corresponding to a total activation time at the spot of 1.1 ms). The scan window was enlarged to the initial size, and the first scan was performed after 1 s with the 488 nm laser at the lowest practical laser intensity. Subsequent images were acquired at a rate of 1 frame/s. 112 images with a resolution of 256 × 256 pixels were collected per activated neurite. […] Effective diffusion constants were determined by fitting the fluorescence decay data from the photoactivation experiments using a one-dimensional diffusion model function for FDAP according to. All data sets were tested for normality using the D’Agostino-Pearson and Shapiro-Wilk tests. Statistical outliers were identified using the ROUT method. Equality was assessed using a F-test to compare variances. To compare different concentrations, statistically significant differences from control were determined by a one-way ANOVA with Dunnett’s post hoc test. […]

[2] = system: HeLaβIII cells (overexpressing βIII tubulin isotype); assay: MTT cytotoxicity assay, HeLaβIII; details: for IC50: Homo sapiens, 48 h, read-out: Cytotoxicity IC50 HeLaβIII; for R/S (resistant to sensitive ratio): IC50 HeLaβIII / IC50 HeLa
Description: Antiproliferative assays were performed as described. […] Then, increasing concentrations of drugs were added and incubated for 48 h prior to the reaction with the MTT solution. IC50 values were obtained by fitting the experimental data (absorbance at 570/690 nm) to a four-parameter logistic curve using SigmaPlot 14.5 software package (Systat Software, Inc., San Jose, CA, USA) and IC50 values were expressed as mean ± SEM from three independent experiments, each performed in duplicate.

A549 cells = assay: MTT cytotoxicity assay, A549; type: cell-based; details: Homo sapiens, read-out: Cytotoxicity IC50 A549
Description: Antiproliferative assays were performed as described.

SMILES: CC(=O)OC1C(=O)C2(C)C(OC(=O)CCCCC(=O)OC3CCc4ccccc43)CC3OCC3(OC(C)=O)C2C(OC(=O)c2ccccc2)C2(O)CC(OC(=O)C(O)C(NC(=O)c3ccccc3)c3ccccc3)C(C)=C1C2(C)C (centres unmarked) [1a, 7-O-(6″-O-(2‴,3‴-Dihydroinden-1‴-yl)hexanedioyl) Paclitaxel]
- effect on Tau's effective diffusion constant (D eff) / Tau-MT interaction ([1]; PC12 cells, 20 h treatment): increasing Tau’s D eff
- IC50 [2]: 0.51 ± 0.08 µM
- R/S (resistant to sensitive ratio) [2]: 3
- IC50 (A549 cells; A549, 48 h): 0.51 ± 0.04 µM

SMILES: COc1ccc2c(c1)CC(NC(=O)CCCCCCCC(=O)OC1CC3OCC3(OC(C)=O)C3C(OC(=O)c4ccccc4)C4(O)CC(OC(=O)C(O)C(NC(=O)c5ccccc5)c5ccccc5)C(C)=C(C(OC(C)=O)C(=O)C13C)C4(C)C)CC2 [1b, 7-O-((S)-9″-(7‴-Methoxy-1‴,2‴,3‴,4‴-tetrahydronaphthalen-2‴-yl)amino) −9″-oxononanoyl) Paclitaxel]
- effect on Tau's effective diffusion constant (D eff) / Tau-MT interaction ([1]; PC12 cells, 20 h treatment): did not significantly alter Tau-MT interactions
- IC50 [2]: 0.72 ± 0.08 µM
- R/S (resistant to sensitive ratio) [2]: 7
- IC50 (A549 cells; A549, MTT, 48 h, mean ± SEM): 0.22 ± 0.02 µM

SMILES: CC(=O)O[C@H]1C(=O)[C@@]2(C)[C@H]([C@H](OC(=O)c3ccccc3)[C@]3(O)C[C@H](OC(=O)[C@H](O)[C@@H](NC(=O)c4ccccc4)c4ccccc4)C(C)=C1C3(C)C)[C@]1(OC(C)=O)CO[C@@H]1C[C@@H]2O [PTX, Paclitaxel]
- unbound Tau population ([1]; 20 nM PTX (control 7.5%)): 4.4%
- decrease in the unbound Tau population ([1]; 20 nM PTX vs control): ~40%
- concentration with notable reduction of Tau's D eff ([1]; PC12 cells, 20 h treatment): 5 nM
- effect on Tau's effective diffusion constant (D eff) / Tau-MT interaction ([1]; PC12 cells, 20 h treatment): significantly reduced Tau’s D eff
- IC50 [2]: 0.0287 ± 0.0007 µM
- IC50 (A549 cells; A549, MTT, 48 h, mean ± SEM): 0.0031 ± 0.0007 µM
